# Patent US5932709A (University of Michigan, priority 1997, dated 1999)
# Entries after “also recorded” stand apart in the source; their conditions may differ.
# What was measured:
# [1] = test system: MCF-7 human breast tumor cells; assay: MTT growth inhibition, MCF-7; assay type: cell-based; conditions: MCF7, 144 h, MCF-7, MTT, 6 days, read-out: Growth Inhibitory Activity IC50
# Method: Camptothecin was used as a control to test the anti-cancer efficacy of the novel camptothecin analogs of the present invention.
# Murine B16 melanoma cell line was grown in RPMI 1640 medium supplemented with 10% heat-inactivated fetal bovine serum, 2 mM L-glutamine, 50 units/mL penicillin, 50 μg/mL streptomycin, 25 μg/mL gentamicin, 0.75% sodium bicarbonate 10 mM HEPES buffer (pH 7.4), and 0.06 mg/mL AntiPPLO. Murine P388 leukemic cell line and human HT-29 colon adenocarcinoma line were maintained in RPMI 1640 medium supplemented with 10% heat-inactivated fetal bovine serum. […] MCF-7M human breast adenocarcinoma was maintained in IMEM supplemented with 5% non heat-inactivated fetal bovine serum and 1 nM insulin.
# [See "Rapid Colorimetric Assay For Cellular Growth And Survival: Application To Proliferation And Cytotoxicity Assays," J. Immun. Meth. 65:55 (1983)]. The assay utilizes a tetrazolium salt to quantitatively measure mammalian cell survival and proliferation by colorimetric methods. In particular, MTT, a pale yellow compound with minimal absorbance, is incubated with cancerous cells in addition to (or in the absence of) a particular camptothecin analog. Living cells with active mitochondrial enzymes metabolize the MTT into a dark blue/purple formazan product with high absorbance. The exact procedure used to test the camptothecin analogs of the present invention is described below.
# Exponentially growing cells (1-2×10^3 cells, unless specified otherwise) in 0.1 mL medium were seeded on day 0 in a 96-well microtiter plate. On day 1, 0.1 mL aliquots of medium containing graded concentrations of test analogs were added to the cell plates. After incubation at 37° C. in a humidified incubator for 3 days (P388, P388/CPT, B16) or 6 days (HT-29, MCF-7M), the plates were centrifuged briefly and 100 μL of the growth medium was removed. Cell cultures were incubated with 50 μL of 3-(4,5-dimethylthiazol-2-yl)-2,5-diphenyl-tetrazolium bromide [MTT, 1 mg/mL in Dulbecco's phosphate buffered saline (PBS)] for 4 hr at 37° C. The resulting purple formazan precipitate was solubilized with 200 μL of 0.04 N HCl in isopropyl alcohol. Absorbance was monitored in a BioRad Model 3550 Microplate Reader at a test wavelength of 570 nm and a reference wavelength of 630 nm. The absorbance is transferred to a PC 486 computer. The IC50 values were determined by a computer program (EZ-ED50) that fits all of the data to the following four-parameter logistic equation:
# Y=(Amax -Amin)/(1+[X/IC^50 ])^n +Amin
# where Amax is the absorbance of control cells, Amin is the absorbance of cells in the presence of highest agent concentration, IC^50 is the concentration of agent that inhibits the cell growth by 50% of control cells (based on the absorbance) and n is the slope of the curve.
# [2] = Water solubility in phosphate buffered saline (spectrophotometric assay); assay type: physicochemical; conditions: for solubility at 24 h: aqueous buffer, water solubility, PBS pH 7.5, room temperature; for water solubility improvement: compared to camptothecin
# Method: Approximately 5 mg of test compound was suspended in 1 mL of PBS in a 1.5 mL cryovial. The suspensions were mixed continuously on a Thermolyne vari-mix at room temperature for 24 hr. The suspensions were then centrifuged at 14000×g for 2 minutes to separate the undissolved materials. The supernatant fluids were diluted appropriately with PBS and the ultraviolet spectrums were recorded on a Beckman 640 DU spectrophotometer. For comparison, a standard stock (2 mg/mL in DMSO) solution was prepared for each analog. The ultraviolet spectrum of a 20 of 40 μg/mL standard working solution was measured. The water solubility of each analog was calculated based on the following formula:
# Cunknown =Cstandard ×(Aunknown
# where Cunknown is the concentration of the unknown solution to be determined; Cstandard is the concentration of the standard working solution (either 20 or 40 μg/mL); Astandard is the absorbance at 350 nm of the standard working solution; DDilution is the appropriate dilution factor used so that the absorbance of the unknown working solution is within the dynamic range of the UV spectrophotometer (less than 2 absorbance units).
# [3] = test system: murine P388 leukemia; assay: Murine P388 leukemia model in vivo; set-up: species or system mouse (B6D2F1); conditions: for Survivors: 30-day; for toxic deaths: at the high dose; for efficacy vs P388 leukemia: i.p. five day schedule; for 30-day survivors (cures): 100 mg/kg
# Method: (§1) For the B16 melanoma model, the following procedure was used. B6D2F1 mice receive i.p. inocula of B16 murine melanoma brei prepared from B16 tumors growing s.c. in mice (day 0). […] If dosing information for agents is not available, the maximum tolerated dose (MTD) is determined in initial dose finding experiments in non-tumored mice.
# (§2) The mean survival times of all groups are calculated, and results are expressed as mean survival of treated mice/mean survival of control mice (T/C)×100%. A T/C value of 150 means that the mice in the treated group lived 50% longer than those of the control group; this is sometimes referred to as the increase in life span or ILS value.
# For the P388 leukemia model, the procedure followed is exactly the same as the aforementioned B16 model. The tumor inoculum is prepared by removing ascited fluid containing P388 cells from tumored B6D2F1 mice, centrifuging the cells, and then resuspending the leukemia cells in saline. Mice receive 1×10^6 P388 cells i.p. on day 0.
# [4] = test system: murine B16 melanoma; assay: Murine B16 melanoma model in vivo; set-up: species or system mouse (B6D2F1); conditions: for Survivors: 60-day
# Method: 1) Murine B16 Melanoma Model
# as §1, §2
# Mice that survive for 60 days are considered long-term survivors, or cures, in the B16 model. The universally accepted cut-off for activity in this model, which has been for years by the National Cancer Institute, is T/C=125. Conventional use of B16 over the years has set the following levels of activity: T/C<125, no activity, T/C=125-150, weak activity; T/C=150-200, modest activity; T/C=200-300, high activity; T/C>300, with long term survivors; excellent, curative activity.
# [5] = lower dose of 100 mg/kg (so in the source)
structure (smiles),measurement,setting,value
"CC[C@@]1(O)C(=O)OCc2c1cc1n(c2=O)Cc2c-1nc1ccccc1c2CO[C@@H]1C=C[C@H](OC(C)=O)[C@@H](COC(C)=O)O1 [HAR4, 7-[4,6-di-O-acetyl-2,3-dideoxy-α-D-erythro-hex-2-enopyranosyl]oxymethylcamptothecin]",IC50,[1],2.7 ng/mL
same,solubility at 24 h,[2],155 µg/mL
same,cures,[3]; 10 mg/kg,two
same,T/C (mean survival treated/control),[3]; 10 mg/kg i.p. daily×5,201%
same,Tox Deaths,[3]; 10 mg/kg i.p. daily×5,0/10
same,ΔWeight (%),[3]; 10 mg/kg i.p. daily×5,-0.6%
same,Survivors,[3]; 10 mg/kg i.p. daily×5,2/10
same,cures,[3]; 20 mg/kg,two
same,T/C (mean survival treated/control),[3]; 20 mg/kg i.p. daily×5,206%
same,Tox Deaths,[3]; 20 mg/kg i.p. daily×5,0/10
same,ΔWeight (%),[3]; 20 mg/kg i.p. daily×5,-14.0%
same,Survivors,[3]; 20 mg/kg i.p. daily×5,2/10
same,toxic deaths,[3],no toxic deaths occurred
same,weight loss,[3]; at the high dose (MTD),12%-16
same,efficacy vs P388 leukemia,[3]; in words,"high, curative efficacy; also recorded: excellent activity vs. P388"
same,cures,[4]; 10 mg/kg,one
same,T/C (mean survival treated/control),[4]; 10 mg/kg i.p. daily×5,189%
same,Tox Deaths,[4]; 10 mg/kg i.p. daily×5,0/10
same,ΔWeight (%),[4]; 10 mg/kg i.p. daily×5,+6.6%
same,Survivors,[4]; 10 mg/kg i.p. daily×5,1/10
same,cures,[4]; 20 mg/kg,one
same,T/C (mean survival treated/control),[4]; 20 mg/kg i.p. daily×5,212%
same,Tox Deaths,[4]; 20 mg/kg i.p. daily×5,1/10
same,ΔWeight (%),[4]; 20 mg/kg i.p. daily×5,-15.6%
same,Survivors,[4]; 20 mg/kg i.p. daily×5,1/10
same,toxic deaths,[4]; high dose group,one
"CC[C@@]1(O)C(=O)OCc2c1cc1n(c2=O)Cc2c-1nc1ccccc1c2CO[C@@H]1C=C[C@H](O[C@H]2O[C@H](COC(C)=O)[C@@H](OC(C)=O)[C@H](OC(C)=O)[C@H]2OC(C)=O)[C@@H](COC(C)=O)O1 [HAR5, 7-[6-O-acetyl-4-O-(2,3,4,6-tetra-O-acetyl-α-D-glucopyranosyl)-2,3-dideoxy-α-D-erythro-hex-2-enopyranosyl]oxymethylcamptothecin]",IC50,[1],10 ng/mL
same,solubility at 24 h,[2],35 µg/mL
same,30-day survivors (cures),[3],one
same,T/C (mean survival treated/control),[3]; 100 mg/kg i.p. daily×5,141%
same,Tox Deaths,[3]; 100 mg/kg i.p. daily×5,0/10
same,ΔWeight (%),[3]; 100 mg/kg i.p. daily×5,+0.7%
same,Survivors,[3]; 100 mg/kg i.p. daily×5,1/10
same,T/C (mean survival treated/control),[3]; 200 mg/kg i.p. daily×5,161%
same,Tox Deaths,[3]; 200 mg/kg i.p. daily×5,0/10
same,ΔWeight (%),[3]; 200 mg/kg i.p. daily×5,-2.0%
same,Survivors,[3]; 200 mg/kg i.p. daily×5,0/10
same,weight loss,"[3]; at its solubility-limiting dose, in words",only insignificant weight loss
same,efficacy vs P388 leukemia,[3]; in words,less efficacious compared to the other three compounds
same,60-day survivors (cures),[4]; 100 mg/kg,three
same,T/C (mean survival treated/control),[4]; 100 mg/kg i.p. daily×5,239%
same,Tox Deaths,[4]; 100 mg/kg i.p. daily×5,0/10
same,ΔWeight (%),[4]; 100 mg/kg i.p. daily×5,+9.0%
same,Survivors,[4]; 100 mg/kg i.p. daily×5,3/10
same,60-day survivors (cures),[4]; 200 mg/kg,three
same,T/C (mean survival treated/control),[4]; 200 mg/kg i.p. daily×5,232%
same,Tox Deaths,[4]; 200 mg/kg i.p. daily×5,0/10
same,ΔWeight (%),[4]; 200 mg/kg i.p. daily×5,+5.9%
same,Survivors,[4]; 200 mg/kg i.p. daily×5,3/10
same,efficacy vs. B16,"[4]; among the four analogs, in words",highest efficacy vs. B16
"CC[C@@]1(O)C(=O)OCc2c1cc1n(c2=O)Cc2c-1nc1ccccc1c2CO[C@@H]1C=C[C@H](O[C@H]2O[C@H](CO)[C@@H](O)[C@H](O)[C@H]2O)[C@@H](CO)O1 [HAR6, 7-[4-O-(α-D-glucopyranosyl)-2,3-dideoxy-α-D-erythro-hex-2-enopyranosyl]-oxymethylcamptothecin]",IC50,[1],111 ng/mL
same,solubility at 24 h,[2],1620 µg/mL
same,water solubility improvement,[2],80 fold
same,T/C (mean survival treated/control),[3]; 50 mg/kg i.p. daily×5,225%
same,Tox Deaths,[3]; 50 mg/kg i.p. daily×5,0/10
same,ΔWeight (%),[3]; 50 mg/kg i.p. daily×5,-3.5%
same,Survivors,[3]; 50 mg/kg i.p. daily×5,1/10
same,30-day survivors (cures),[3],three
same,T/C (mean survival treated/control),[3]; 100 mg/kg i.p. daily×5,320%
same,Tox Deaths,[3]; 100 mg/kg i.p. daily×5,0/10
same,ΔWeight (%),[3]; 100 mg/kg i.p. daily×5,-12.2%
same,Survivors,[3]; 100 mg/kg i.p. daily×5,3/10
same,toxic deaths,[3],no toxic deaths occurred
same,weight loss,[3]; at the high dose (MTD),12%-16
same,efficacy vs P388 leukemia,[3]; in words,"high, curative efficacy"
same,T/C,[3]; [5],225%
same,cures,[3]; [5],one
same,60-day survivors (cures),[4]; 100 mg/kg,no cures
same,drug-related deaths,[4]; 100 mg/kg,one
same,T/C (mean survival treated/control),[4]; 100 mg/kg i.p. daily×5,184%
same,Tox Deaths,[4]; 100 mg/kg i.p. daily×5,1/10
same,ΔWeight (%),[4]; 100 mg/kg i.p. daily×5,-13.8%
same,Survivors,[4]; 100 mg/kg i.p. daily×5,0/10
same,weight loss,[4]; 100 mg/kg i.p. five day schedule,approximately 14%
same,T/C (mean survival treated/control),[4]; 150 mg/kg i.p. daily×5,185%
same,Tox Deaths,[4]; 150 mg/kg i.p. daily×5,7/10
same,ΔWeight (%),[4]; 150 mg/kg i.p. daily×5,-27.2%
same,Survivors,[4]; 150 mg/kg i.p. daily×5,0/10
"CC[C@@]1(O)C(=O)OCc2c1cc1n(c2=O)Cc2c-1nc1ccccc1c2CO[C@@H]1C=C[C@H](O)[C@@H](CO)O1 [HAR7, 7-[2,3-dideoxy-α-D-erythro-hex-2-enopyranosyl]-oxymethylcamptothecin]",IC50,[1],6.4 ng/mL
same,solubility at 24 h,[2],62 µg/mL
same,water solubility improvement,[2],16 fold
same,T/C (mean survival treated/control),[3]; 20 mg/kg i.p. daily×5,192%
same,Tox Deaths,[3]; 20 mg/kg i.p. daily×5,0/10
same,ΔWeight (%),[3]; 20 mg/kg i.p. daily×5,-1.7%
same,Survivors,[3]; 20 mg/kg i.p. daily×5,0/10
same,T/C (mean survival treated/control),[3]; 40 mg/kg i.p. daily×5,223%
same,Tox Deaths,[3]; 40 mg/kg i.p. daily×5,0/10
same,ΔWeight (%),[3]; 40 mg/kg i.p. daily×5,-16.0%
same,Survivors,[3]; 40 mg/kg i.p. daily×5,3/10
same,30-day survivors,"[3]; 40 mg/kg, high dose",three
same,toxic deaths,[3],no toxic deaths occurred
same,weight loss,[3]; at the high dose (MTD),12%-16
same,efficacy vs P388 leukemia,[3]; in words,"high, curative efficacy; also recorded: excellent activity vs. P388"
same,cures,[4]; 20 mg/kg,no cures
same,T/C (mean survival treated/control),[4]; 20 mg/kg i.p. daily×5,191%
same,Tox Deaths,[4]; 20 mg/kg i.p. daily×5,0/10
same,ΔWeight (%),[4]; 20 mg/kg i.p. daily×5,-0.1%
same,Survivors,[4]; 20 mg/kg i.p. daily×5,0/10
same,T/C (mean survival treated/control),[4]; 40 mg/kg i.p. daily×5,205%
same,Tox Deaths,[4]; 40 mg/kg i.p. daily×5,0/10
same,ΔWeight (%),[4]; 40 mg/kg i.p. daily×5,-7.9%
same,Survivors,[4]; 40 mg/kg i.p. daily×5,1/10
same,60-day survivors,[4]; dose not stated,one
